Bounds are passed on as bounds.

The record followed here is ChEMBL document CHEMBL1177647, “Synthesis and characterization of novel phenylindoles as potential probes for imaging of β-amyloid plaques in the brain” (Bioorg Med Chem, 2010).

This test can be described thus: Displacement of [125I]IMPY from amyloid beta42 by gamma counting. For orientation: In a radioligand displacement assay an active substance lowers the binding of a labelled ligand.
One may read the Ki as the equilibrium dissociation constant of an inhibitor or competing ligand from its target. As for `Oc1ccc(-c2cc3cc(I)ccc3[nH]2)cc1`, the Ki amounted to 32.9 nM.

With `CNc1ccc(-c2cc3cc(I)ccc3[nH]2)cc1`, the affinity, expressed as Ki, was 27 nM. `CN(C)c1ccc(-n2ccc3cc(I)ccc32)cc1` displayed a Ki of more than 10000 nM. Molecule `OCCOc1ccc(-c2cc3cc(I)ccc3[nH]2)cc1` gave a Ki of 25.9 nM.
